Calls of active or inactive are those of the source. No cut-off for these calls is given here.
Tests used:
[1] = system: MGC-803; assay: Antiproliferative activity against human MGC-803 cells incubated for 48 hrs by CCK8 assay; type: functional, cell-based; details: MGC-803, 48 h
[2] = molecular target: Tubulin beta (Homo sapiens) (UniProt P68371+Q9H4B7+Q13509+P04350+Q3ZCM7+P07437+Q13885+Q9BVA1+Q9BUF5+A6NNZ2); assay: Binding affinity to beta-tubulin colchicine binding site in human KYSE-30 cells assessed as inhibition of tubulin-EBI adduct formation by EBI addition by Western blotting analysis; type: cell-based
[3] = molecular target: T1, Tubulin (Homo sapiens) (UniProt P68371+Q9H4B7+P0DPH7+P68366+Q13509+Q71U36+P04350+Q3ZCM7+P07437+P68363+Q9BQE3+Q6PEY2+Q13885+Q9BVA1+Q9BUF5); assay: Inhibition of tubulin polymerization in human KYSE-30 cells at 1.25 uM by immunofluorescence assay; type: cell-based
[4] = system: KYSE-450; assay: Induction of cell morphological changes in human KYSE-450 cells measured after 48 hrs; type: functional, cell-based
[5] = system: KYSE-450; assay: Inhibition of colony formation in human KYSE-450 cells at 0.188 to 0.313 uM after 7 days by crystal violet staining based assay; type: functional, cell-based; details: dose 0.188-0.313 µM, time 7.0 day
[6] = molecular target: T1, Tubulin (Homo sapiens); assay: […] of tubulin polymerization in human KYSE-450 cells assessed as inhibition of cell growth after 48 hrs relative to control; type: cell-based
[7] = molecular target: T1, Tubulin (Homo sapiens); assay: Inhibition of tubulin polymerization in human KYSE-30 cells assessed as reduction in cell viability; type: cell-based
[8] = molecular target: T1, Tubulin (Homo sapiens); assay: Inhibition of tubulin polymerization in human KYSE-450 cells assessed as reduction in cell viability upto 48 hrs; type: cell-based; details: time hrs <=48, TDE = time-dependent effect
[9] = molecular target: T1, Tubulin (Homo sapiens); assay: Inhibition of tubulin polymerization in human KYSE-30 cells by immunofluorescence assay; type: cell-based

O=C(Cc1ccccc1)N1CCc2cc(Br)ccc21
IC50 [1]: 32.8 µM

COc1cc(C(=O)N2CCc3cc(Br)ccc32)cc(OC)c1OC
Activity [2]: Active | inhibition [3]: Active | Activity [4]: Active | inhibition [5]: Active | Activity [6]: Dose-Dependent Effect | inhibition [7]: Dose-Dependent Effect | inhibition [8]: Tde | inhibition [9]: Dose-Dependent Effect
